# Source: patent US6020316A, “Glutaraldehyde modified chemotherapeutic agents and methods of use thereof” (priority 1998, dated 2000)
# Columns and labels:
# [1] = test system: L929/DOX cells; experiment: Drug efflux from L929/DOX cells versus wild type cells; type: cell-based, murine
# Description: The surviving resistant population was used in subsequent experiments.
# [2] = test system: MCF-7 (breast adenocarcinoma); experiment: Clonogenic survival of human breast adenocarcinoma cells; type: cell-based; settings: FIG. 3B
# Experimental: (§1) The murine L929 cell line, a human breast adenocarcinoma cell line (MCF-7) and a human bladder transitional cell carcinoma cell line (RT-4) were used to test the compounds of the present invention. All cell lines were obtained from MA Bioproducts (Bethesda, Md.) and were routinely maintained in high-glucose Dulbecco's Modified Eagle's Minimum Essential Medium (DMEM) and 10% newborn calf serum (L929) or 10% fetal calf serum (MCF-7 and RT-4). A DOX-resistant cell line, L929/DOX, was prepared by treating the L929 cell line with gradually increasing concentrations of DOX in vitro until a cell line that grew at a concentration of 50 μg/ml DOX was attained. A resistant subclone was then treated once with 100 μg/ml of DOX. The surviving resistant population was used in subsequent experiments. The L929/DOX cells were maintained in DMEM medium supplemented with 10% fetal calf serum and lacking DOX.
# (§2) Cells from the stock cultures were plated in 35 mm plastic tissue culture dishes at a density of 1×10^5 /cm^2. After 1 to 2 days, when the monolayer had reached a final density of 2-3×10^5 /cm^2, the cultures were washed twice with Dulbecco's phosphate-buffered saline and 2 ml of serum-free DMEM was added. […] Plates were examined after staining with methylene blue, and clones containing more than 10 cells were counted. […]
# [3] = test system: HLC (lung carcinoma); experiment: Clonogenic survival of human lung carcinoma cells; type: cell-based; settings: FIG. 3C
# Experimental: (§3) Cells from the stock cultures were plated in 35 mm plastic tissue culture dishes at a density of 1×10^5 /cm^2. After 1 to 2 days, when the monolayer had reached a final density of 2-3×10^5 /cm^2, the cultures were washed twice with Dulbecco's phosphate-buffered saline and 2 ml of serum-free DMEM was added. […] After incubation for 3 hours at 37° C. in 10% CO2, the dishes were rinsed twice with phosphate-buffered saline (pH 7.4) to remove extracellular drugs, trypsinized, and plated for determination of clonogenic survival. Trypsinization involved dispersal of cells with 0.25% trypsin, followed by culture in DMEM plus 10% newborn calf serum for 7 days. Plates were examined after staining with methylene blue, and clones containing more than 10 cells were counted. The surviving fraction was the ratio of the plating efficiency of the cultures exposed to DOX divided by the plating efficiency of control cultures maintained in a medium of the same composition. Plating efficiency is defined as the number of colonies formed divided by the number of cells plated.
# [4] = test system: L929 cells; experiment: Fluorescence uptake and localization of DOX and GLU-DOX in L929 cells; type: cell-based, murine
# Experimental: Cells were grown on 25 mm diameter microscope cover slips (Thomas, Sweedsboro, N.J.) in 35 mm tissue culture dishes. […] The wells were then rinsed two times with phosphate buffered saline and changed to fresh medium. After incubation for 0 h or 2 h, the cover slips were extracted from the plates, rinsed with PBS, mounted in an Attofluor cell chamber (Molecular Probes, Inc. Eugene, Oreg.), and examined by epifluorescence using a Zeiss microscope equipped with a 63× immersion oil objective. The combination of G546 excitation filer, FT580 dichroic mirror, and LP590 emission filter allowed efficient detection of doxorubicin fluorescence at 590 nm. The fluorescence was detected by a CCD72S camera (Dage-MTI, Inc, Michigan City, Ind.) and images were acquired and analyzed using OPTIMAS software (Optimas Corp., Seattle, Wash.). […] Area (A) per fluorescent image, i.e., per cell, and mean gray per image (MI) were measured for at least 20 cells. Mean gray for a background area containing no cell images (MB) was also determined. Fluorescence units (F.U.) per cell were calculated as: [formula]
# [5] = test system: HTB (bladder transitional cell carcinoma); experiment: Clonogenic survival of human bladder transitional cell carcinoma cells; type: cell-based; settings: FIG. 3A
# Experimental: as §1, §2
# [6] = test system: tumor cell; experiment: Antitumor cell activity of DOX modified with other aldehydes and crosslinking agents; type: cell-based; settings: substituted for glutaraldehyde in the basic modification protocol
# Experimental: Other aldehydes and crosslinking agents that were substituted for glutaraldehyde in the basic modification protocol included acetaldehyde, butyraldehyde, hexanal, formaldehyde, succinyl chloride, glutaryl dichloride (all from Aldrich Chemical Co., Milwaukee, Wis.), DSG (disuccinimidyl glutarate), DMS (dimethylsuberimidate), and BS^3 (last three compounds from Pierce Chemical Co., Rockford, Ill.).
# as §3
compound,measurement,setting,value
"COc1cccc2c1C(=O)c1c(O)c3c(c(O)c1C2=O)C[C@@](O)(C(=O)CO)C[C@@H]3O[C@H]1C[C@H](N)[C@H](O)[C@H](C)O1 [DOX, doxorubicin]",drug efflux from L929/DOX relative to wild type cells,[1],pumped out of the L929/DOX cells much faster than out of the wild type cells
same,sensitivity to DOX,[2],relatively insensitive
same,sensitivity to DOX,[3],relatively insensitive
same,Uptake: Mean Fluorescence Units per Cell,"[4]; 5 μg/ml, 3 h at 37° C.",124 ± 29 Fluorescence Units per Cell
same,Uptake: Mean Fluorescence Units per Cell,"[4]; 5 μg/ml, 3 h at 37° C. + 2 h chase",18 ± 6 Fluorescence Units per Cell
same,fluorescence after chase in drug-free medium,"[4]; 2 hr chase, FIGS. 4B, 4D",nearly all DOX was lost from the cytoplasmic compartment although some nuclear fluorescence was still detectable
same,subcellular distribution of fluorescence,"[4]; 3 h exposure, 5 μg/ml, FIGS. 4A, 4C",in both nucleus and cytoplasm with distinct paranuclear concentration in some cells
same,sensitivity to DOX,[5],relatively insensitive
CCCCCC=O [hexanal],antitumor cell activity of the DOX reaction product relative to DOX,[6],"None of these compounds, when reacted with DOX, produced a derivative with increased antitumor cell activity relative to DOX"
COC(=O)c1ccccc1-c1c2ccc(=N)cc-2oc2cc(N)ccc12 [rhodamine 123],intracellular localization compared with rhodamine 123,"[4]; 2 h exposure, GLU-DOX (100:1) 5 μg/ml, rhodamine 123 10 μg/ml, FIGS. 5A, 5B",strikingly similar
O=C(Cl)CCC(=O)Cl [succinyl chloride],antitumor cell activity of the DOX reaction product relative to DOX,[6],"None of these compounds, when reacted with DOX, produced a derivative with increased antitumor cell activity relative to DOX"
acetaldehyde,antitumor cell activity of the DOX reaction product relative to DOX,[6],"None of these compounds, when reacted with DOX, produced a derivative with increased antitumor cell activity relative to DOX"
butyraldehyde,antitumor cell activity of the DOX reaction product relative to DOX,[6],"None of these compounds, when reacted with DOX, produced a derivative with increased antitumor cell activity relative to DOX"
formaldehyde,antitumor cell activity of the DOX reaction product relative to DOX,[6],"None of these compounds, when reacted with DOX, produced a derivative with increased antitumor cell activity relative to DOX"
glutaryl dichloride,antitumor cell activity of the DOX reaction product relative to DOX,[6],"None of these compounds, when reacted with DOX, produced a derivative with increased antitumor cell activity relative to DOX"
